The record followed here is the Kinase Knowledgebase extract (Sharma et al. 2016).

This test concerns the target CDK2 (UniProt P24941). The test can be described thus: Enzyme Assay.

Some results are limits rather than exact numbers.

One may read the IC50 as the concentration that gives 50% inhibition. Lower therefore signals greater potency in that assay. In the case of `CC(C)(CO)CNCc1ccc(Nc2ncc(SCc3ncc(C(C)(C)C)o3)s2)nc1`, the IC50 was less than 50 µM.
As to `CC(C)(C)c1cnc(CSc2cnc(Nc3cccc(CO)c3)s2)o1`, the IC50 is less than 50 µM.
For `CCc1cnc(CSc2cnc(NC(=O)c3ccccc3)s2)o1` the value was less than 50 µM; for `CC(=O)Nc1ncc(SCc2nc(C)c(C)o2)s1`, less than 50 µM; for `CC(C)(C)c1cnc(CSc2cnc(Nc3ccc(S(N)(=O)=O)cc3)s2)o1`, less than 50 µM.
For `CC(C)(C)c1cnc(CSc2cnc(Nc3ccccn3)s2)o1` the value was less than 50 µM.
Take `CC(C)(C)C(=O)Cc1ncc(SCc2ncc(C(C)(C)C)o2)s1`: the IC50 is less than 50 µM.
For `CC(C)(C)c1cnc(CSc2cnc(Nc3ccncn3)s2)o1`, the IC50 is less than 50 µM.
Under `CCc1cnc(CSc2cnc(NC(C)=O)s2)o1` stands less than 50 µM; under `CCc1coc(CSc2cnc(NC(C)O)s2)n1` (centres undefined), less than 50 µM.
For `CC(=O)Nc1ncc(SC(F)c2ncc(C(C)C)o2)s1` (centres undefined), the IC50 is less than 50 µM.
For `CC(C)(C)c1cnc(CSc2cnc(NC(=NC#N)Nc3c(F)cccc3F)s2)o1` the value was less than 50 µM; for `CC(=O)Nc1ncc(SCc2ncc(C(C)(C)C)o2)s1`, less than 50 µM; for `CC(C)(C)c1cnc(CSc2cnc(Nc3ccc(S(=O)(=O)NCCO)cc3)s2)o1`, less than 50 µM.
